According to patent US20130231276A1, “Combination Of An Aminoacyl-tRNA Synthetase Inhibitor With A Further Antibacterial Agent For Attenuating Multiple Drug Resistance” (BROWN UNIVERSITY, priority 2010, published 2013):
≈ marks a conversion by molar mass, not a printed value. Like-named read-outs stand apart in the source and are kept apart here.

Experiments:
[1] = system: Streptomyces coelicolor M600; experiment: MIC on Difco Nutrient Agar with sub-lethal indolmycin, strain M600 (wild-type); format: cell-based; conditions: for MIC: Streptomyces coelicolor, M600, 48 h, 30° C., 48 hours
Description: (§1) Changes in the susceptibility of S. coelicolor to three clinically used antibacterial drugs (chloramphenicol, erythromycin, and vancomycin) grown in the presence of indolmycin were assessed. The effects of antibiotic combinations were assessed in wild-type S. coelicolor, which has an auxiliary, indolmycin-resistant isoform of tryptophanyl-tRNA synthetase (TrpRS1). We also examined these combinations in three other indolmycin-resistant strains of S. coelicolor—a trpRS2 null strain (B728) (8) and two strains lacking trpRS1 with resistance conferring point mutations in trpRS2 (B734 with TrpRS2 H48N and B735 with TrpRS2 H48Q) (9). These strains were selected because the strong antibacterial activity of indolmycin precluded testing of this hypothesis in the indolmycin-sensitive trpRS1 null strain of S. coelicolor. The effects were measured in terms of changes in the chloramphenicol, erythromycin, and vancomycin MICs of the four strains over a range of sub-lethal indolmycin concentrations.
(§2) Streptomyces coelicolor strains were grown on DIFCO Nutrient Agar supplemented with indolmycin (0-100 μg/mL) and one of the following antibacterial agents: chloramphenicol (10-80 μg /mL), erythromycin (1-110 μg/mL), and vancomycin (30-140 μg/mL). The strains were grown on the media at 30° C. for 48 hours, after which point growth was assessed visually.
(§3) A 50 mg/mL (active enantiomer) stock solution of indolmycin was prepared by dissolving the indolmycin in DMSO. The concentrations of each stock solution reflect the actual concentration of the pharmacologically active substance. Aliquots of the stock solutions were added directly to molten, sterile DIFCO Nutrient Agar prior to solidification. Streptomyces coelicolor spores were directly spread onto the surface of each DNA plate and the plates were incubated at 30° C. for about 48 hours. Growth was assessed visually after the incubation period. Minimal inhibitory concentrations (MICs) reflect the drug concentrations at which no Streptomyces coelicolor growth was observed.
(§4) All Streptomyces strains were grown on Difco Nutrient Agar at 30° C. The MICs were assessed after 48 hours.

[2] = system: Streptomyces coelicolor B728; experiment: MIC on Difco Nutrient Agar with sub-lethal indolmycin, strain B728 (trpRS2 null); format: cell-based
Description: as §1, §2, §3, §4

S. coelicolor = experiment: Indolmycin MIC against S. coelicolor; format: cell-based, Streptomyces coelicolor; conditions: indolmycin alone
[3] = system: methicillin-resistant Staphylococcus aureus; conditions: cited from earlier work
Helicobacter pylori = conditions: cited from earlier work
[4] = molecular target: tryptophanyl-tRNA synthetase (TrpRS1) (Streptomyces coelicolor, UniProt Q8CJX0); conditions: TrpRS1 of S. coelicolor, reference (19), cited from earlier work
tryptophanyl-tRNA synthetase (TrpRS1), sequence (Q8CJX0 whole entry): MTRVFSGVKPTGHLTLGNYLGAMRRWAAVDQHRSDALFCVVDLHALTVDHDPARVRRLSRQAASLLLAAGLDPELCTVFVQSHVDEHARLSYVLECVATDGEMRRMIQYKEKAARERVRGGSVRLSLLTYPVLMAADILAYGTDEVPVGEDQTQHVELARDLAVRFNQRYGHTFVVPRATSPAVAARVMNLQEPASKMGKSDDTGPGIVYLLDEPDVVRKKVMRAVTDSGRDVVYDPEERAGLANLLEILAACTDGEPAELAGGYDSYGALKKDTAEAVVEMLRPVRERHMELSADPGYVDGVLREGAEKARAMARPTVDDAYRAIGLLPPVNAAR

[5] = strain M600, 0 μg/ml Indolmycin, read-out: MIC
[6] = strain M600, 10 μg/ml Indolmycin, read-out: MIC
[7] = strain M600, 25 μg/ml Indolmycin, read-out: MIC
[8] = strain M600, 50 μg/ml Indolmycin, read-out: MIC
[9] = strain M600, 75 μg/ml Indolmycin, read-out: MIC
[10] = strain M600, 100 μg/ml Indolmycin, read-out: MIC
[11] = Streptomyces coelicolor, B728, 48 h, strain B728, 0 μg/ml Indolmycin, 30° C., 48 hours
[12] = Streptomyces coelicolor, B728, 48 h, strain B728, 10 μg/ml Indolmycin, 30° C., 48 hours
[13] = Streptomyces coelicolor, B728, 48 h, strain B728, 25 μg/ml Indolmycin, 30° C., 48 hours
[14] = Streptomyces coelicolor, B728, 48 h, strain B728, 50 μg/ml Indolmycin, 30° C., 48 hours
[15] = Streptomyces coelicolor, B728, 48 h, strain B728, 75 μg/ml Indolmycin, 30° C., 48 hours
[16] = Streptomyces coelicolor, B728, 48 h, strain B728, 100 μg/ml Indolmycin, 30° C., 48 hours

Compound	MIC [1, 5] [µg/mL]	MIC [1, 6] [µg/mL]	MIC [1, 7] [µg/mL]	MIC [1, 8] [µg/mL]	MIC [1, 9] [µg/mL]	MIC [1, 10] [µg/mL]	MIC [2, 11] [µg/mL]	MIC [2, 12] [µg/mL]	MIC [2, 13] [µg/mL]	MIC [2, 14] [µg/mL]	MIC [2, 15] [µg/mL]	MIC [2, 16] [µg/mL]	other results
O=C(N[C@H](CO)[C@H](O)c1ccc([N+](=O)[O-])cc1)C(Cl)Cl [Chloramphenicol, chloramphenicol]	80	35	25	20	15	10	60	40	30	30	20	20	MIC was reduced ([1]; wild-type S. coelicolor, media supplemented with indolmycin): 10 fold
CN=C1NC(=O)[C@H]([C@H](C)c2c[nH]c3ccccc23)O1 [indolmycin]	–	–	–	–	–	–	–	–	–	–	–	–	MIC (S. coelicolor): > 500 µg/mL; MIC [3]: 0.5 µg/mL (≈ 1.94 µM); MIC (Helicobacter pylori): 0.016 µg/mL (≈ 0.0622 µM); Ki [4]: 900 nM; Ki ([4]; listed as Indolmycin): ~900 nM
CN[C@H](CC(C)C)C(=O)N[C@H]1C(=O)N[C@@H](CC(N)=O)C(=O)N[C@H]2C(=O)N[C@H]3C(=O)N[C@H](C(=O)N[C@H](C(=O)O)c4cc(O)cc(O)c4-c4cc3ccc4O)[C@H](O)c3ccc(c(Cl)c3)Oc3cc2cc(c3O[C@@H]2O[C@H](CO)[C@@H](O)[C@H](O)[C@H]2O[C@H]2C[C@](C)(N)[C@H](O)[C@H](C)O2)Oc2ccc(cc2Cl)[C@H]1O [Vancomycin, vancomycin]	–	–	–	–	–	–	–	–	–	–	–	–	MIC ([1]; strain M600, 0 μg/ml Indolmycin): 110 µg/mL; MIC ([1]; strain M600, 10 μg/ml Indolmycin): 110 µg/mL; MIC ([1]; strain M600, 25 μg/ml Indolmycin): 110 µg/mL; MIC ([1]; strain M600, 50 μg/ml Indolmycin): 110 µg/mL; MIC ([1]; strain M600, 75 μg/ml Indolmycin): 110 µg/mL; MIC ([1]; strain M600, 100 μg/ml Indolmycin): 70 µg/mL; more sensitive in the presence of indolmycin ([1]; strain M600, about 100 μg/mL indolmycin): 1.6 times; MIC ([2]; Streptomyces coelicolor, B728, 48 h): 130 µg/mL; MIC ([2]; strain B728, 10 μg/ml Indolmycin, 30° C., 48 hours): 130 µg/mL; MIC ([2]; strain B728, 25 μg/ml Indolmycin, 30° C., 48 hours): 130 µg/mL; MIC ([2]; strain B728, 50 μg/ml Indolmycin, 30° C., 48 hours): 130 µg/mL; MIC ([2]; strain B728, 75 μg/ml Indolmycin, 30° C., 48 hours): 130 µg/mL; MIC ([2]; strain B728, 100 μg/ml Indolmycin, 30° C., 48 hours): 130 µg/mL
CC[C@H]1OC(=O)[C@H](C)[C@@H](O[C@H]2C[C@@](C)(OC)[C@@H](O)[C@H](C)O2)[C@H](C)[C@@H](O[C@@H]2O[C@H](C)C[C@H](N(C)C)[C@H]2O)[C@](C)(O)C[C@@H](C)C(=O)[C@H](C)[C@@H](O)[C@]1(C)O [Erythromycin, erythromycin]	110	40	30	15	10	5	70	50	30	20	10	5	–
